# Measured values reported in patent US20210213104A1, “GLUCAGON AND GLP-1 CO-AGONISTS FOR THE TREATMENT OF CHRONIC KIDNEY DISEASE AND DIABETIC KIDNEY DISEASE IN TYPE 2 DIABETES” (MEDIMMUNE LIMITED, priority 2020, published 2021).
# Assays:
# [1] = tested on: brown adipose tissue; experiment: [^18F]FDG uptake by PET imaging (separate study); format: in vivo, mice
# Description: Finally, glucose uptake was elevated in brown adipose tissue in Cotadutide treated mice, which was confirmed in a separate study of [^18F]FDG uptake by PET imaging.
# [2] = tested on: subjects with T2DM and renal impairment; experiment: Phase 2a: blood pressure and heart rate (ABPM and office-based); format: in vivo, human
# Description: After instruction, subjects set up and applied an ambulatory blood pressure monitoring (ABPM) device. The subjects were advised to undergo normal daily activities while wearing the cuff and to avoid any strenuous forms of activity, bathing, or showering while wearing the cuff. The subjects were advised to remain still during the measurement with the arm relaxed at heart level. During ABPM, systolic BP, diastolic BP, heart rate pressure, heart rate, and mean arterial pressure readings were recorded over a period of 24 hours.
# Based on post-hoc analysis, ABPM measurements were as follows: mean change from baseline to Day 32: −1.15 mmHg vs 2.21 mmHg (systolic, Cotadutide vs Placebo) and 2.54 mmHg vs 1.84 mmHg (diastolic, Cotadutide vs Placebo). Increases in supine blood pressure from baseline were also observed after 32 days of treatment: 1.44 mmHg vs 8.69 mmHg (systolic, Cotadutide vs placebo) and 0.57 mmHg vs 3.40 mmHg (diastolic, Cotadutide vs placebo); however, these changes were also not clinically significant and were numerically greater in the placebo group.
# Based on office-based measurement, increases in postural blood pressure difference were observed after 32 days of treatment: 8.9 mmHg vs 0 1 mmHg (systolic, Cotadutide vs placebo) and 0.8 mmHg vs 1 8 mmHg (diastolic, Cotadutide vs placebo); however, these changes were not clinically significant.
# By Day 32, the LS mean change from baseline in pulse rate (office-based measure) was an increase of 14.13 bpm for subjects in the Cotadutide dose group and 3.14 bpm for subjects in the placebo dose group (p <0.001). […] Mean heart rate changes from baseline to Day 32 were numerically greater while asleep (13.06 bpm vs −2.28 bpm) compared to awake (10.78 bpm vs −0.80 bpm) for subjects on Cotadutide vs placebo, respectively.
# [3] = tested on: subjects with T2DM and renal impairment; experiment: Phase 2a: urine albumin:creatinine ratio (UACR); format: in vivo, human; conditions: for UACR Relative Change from Baseline to End of Dosing (vs. Placebo): subjects with mean UACR > 3 mg/mmol at baseline (micro- or macroalbuminuria), 1-exponential of fold change
# Method: Cotadutide was titrated from 50 μg up to 300 μg and administered once daily by subcutaneous (SC) injection over 32 days.
# Cotadutide was administered at 50 μg once daily for 4 days, followed by 100 μg daily for 7 days, 200 μg daily for 7 days, and 300 μg daily for 14 days (n=20). Placebo was administered one daily for 32 days (n=20). Cotadutide and placebo were administered in the morning. Dosing commenced following predose baseline vital signs, blood tests (including HbA1c), an electrocardiogram (ECG), body weight measurement, and bioimpedance spectroscopy (BIS). Subjects then returned for daily dosing or remained overnight locally until Day 5, and thereafter, had visits at weekly intervals until a maintenance dose of 300 μg was established. Thus, Cotadutide or placebo was administered at the study site by study personal for the first four doses and on site on Days 5, 12, 19, and 32. At all other times, subjects preformed dosing at home.
# Mean urine albumin:creatinine ratio (UACR) was lower in the Cotadutide dose group compared to placebo from Day 19 until the end of dosing, and for 8 days into the follow-up period.
# [4] = tested on: diet induced obese (DIO) mice; experiment: Hyperinsulinemic clamps in diet induced obese (DIO) mice; format: in vivo
# Method: Following 28 days of daily dosing with Cotadutide (10 nmol/kg), Liraglutide (5 nmol/kg; GLP-1 agonist) or g1437 (5 nmol/kg; a Gcg analog), mice underwent continuous infusion of 4 mU/kg/min insulin and [3H]-glucose to assess glucose turnover. Tissue-specific glucose uptake was assessed using 14C-2-deoxyglucose.
# [5] = tested on: subjects with T2DM and renal impairment; experiment: Phase 2a: anti-drug antibody (ADA) screening assay; format: in vivo, human
# Method: Blood samples were collected to evaluate anti-drug antibody (ADA) response to Cotadutide. A screening assay in the form of a traditional ligand-binding “birding” assay using electrochemiluminescence was used to determine ADA-positive samples.
# Development of ADA and titres (in any subjects testing positive) were assessed (As-treated population). No subjects tested positive for ADA at baseline. A total of 2 subjects (4.9%) were ADA positive post-baseline (both subjects [9.5%] in the Cotadutide dose group). […] 1 subject was ADA positive at Day 12 (titer ≤5) but negative at subsequent visits. One subject was ADA positive at Day 32 (titer=2560) and remained positive at the Day 60 follow-up visit (titer=160); at 6 months after their last visit; the antibody titer was 10, and therefore, no additional follow-up was deemed necessary for this subject.
# [6] = tested on: subjects with T2DM and renal impairment; experiment: Phase 2a: adverse events; format: in vivo, human
# Method: Only serious adverse events (SAEs) associated with protocol-related procedures were collected form time of signature of informed consent until the stat of the treatment period. All adverse events (AEs) were collected during the treatment period and follow-up period (Day 60±5). AEs and SAEs were graded by severity and relationship to Cotadutide or placebo, and SAEs were assessed for relationship to protocol procedures.
# [7] = office-based measurement, after 32 days
# [8] = subjects with mean UACR > 3 mg/mmol at baseline
# [9] = subjects with mean UACR > 3 mg/mmol at baseline, ITT
structure (smiles),measurement,setting,value
CCCCCCCCCCCCCCCC(=O)N[C@@H](CCC(=O)NCCCC[C@H](NC(=O)[C@H](CC(=O)O)NC(=O)[C@H](CO)NC(=O)[C@@H](NC(=O)[C@H](Cc1ccccc1)NC(=O)[C@@H](NC(=O)CNC(=O)[C@H](CCC(N)=O)NC(=O)[C@H](CO)NC(=O)[C@@H](N)Cc1c[nH]cn1)[C@@H](C)O)[C@@H](C)O)C(=O)N[C@@H](CO)C(=O)N[C@@H](CCC(=O)O)C(=O)N[C@@H](Cc1ccc(O)cc1)C(=O)N[C@@H](CC(C)C)C(=O)N[C@@H](CC(=O)O)C(=O)N[C@@H](CO)C(=O)N[C@@H](CCC(=O)O)C(=O)N[C@@H](CCCNC(=N)N)C(=O)N[C@@H](C)C(=O)N[C@@H](CCCNC(=N)N)C(=O)N[C@@H](CC(=O)O)C(=O)N[C@@H](Cc1ccccc1)C(=O)N[C@H](C(=O)N[C@@H](C)C(=O)N[C@@H](Cc1c[nH]c2ccccc12)C(=O)N[C@@H](CC(C)C)C(=O)N[C@@H](CCC(=O)O)C(=O)N[C@@H](C)C(=O)NCC(=O)NCC(=O)O)C(C)C)C(=O)O [Cotadutide],"[^18F]FDG uptake by PET imaging, brown adipose tissue",[1],confirmed
same,"Mean heart rate change from baseline to Day 32, asleep",[2]; ABPM,13.06 bpm
same,"Mean heart rate change from baseline to Day 32, awake",[2]; ABPM,10.78 bpm
same,LS mean change from baseline in pulse rate (office-based measure),[2]; Day 32,14.13 bpm
same,changes in blood pressure,[2]; after 32 days of treatment,no clinically or statistically significant changes
same,"supine diastolic blood pressure, increase from baseline",[2]; after 32 days of treatment,0.57 mmHg
same,"supine systolic blood pressure, increase from baseline",[2]; after 32 days of treatment,1.44 mmHg
same,changes in blood pressure,"[2]; after 32 days of treatment, listed as cotadutide",no significant changes
same,Pulse rate increase,"[2]; by day 32, P<0.001",11 beats per minute
same,differences in heart rate from baseline,[2]; end of the study (Day 60),no meaningful differences
same,"increase in postural blood pressure difference, diastolic",[2]; [7],0.8 mmHg
same,"increase in postural blood pressure difference, systolic",[2]; [7],8.9 mmHg
same,"24-hour heart rate by ABPM, mean increase from baseline to Day 32",[2]; post-hoc analysis,11.85 bpm
same,"ABPM diastolic blood pressure, mean change from baseline to Day 32",[2]; post-hoc analysis,2.54 mmHg
same,"ABPM systolic blood pressure, mean change from baseline to Day 32",[2]; post-hoc analysis,−1.15 mmHg
same,"Urine Albumin/Creatinine, End of Dosing (Day 33), Mean","[3]; Total, ITT",10.06 mg/mmol
same,"Urine Albumin/Creatinine, End of Dosing (Day 33), Median","[3]; Total, ITT",2.00 mg/mmol
same,UACR LS Mean Change,"[3]; baseline to Day 33, ANCOVA, Total, ITT",-3.05 mg/mmol
same,"UACR Change from Baseline, Mean","[3]; baseline to Day 33, Total, ITT",-3.05 mg/mmol
same,"UACR Change from Baseline, Median","[3]; baseline to Day 33, Total, ITT",-0.60 mg/mmol
same,UACR Difference in LS Mean Change (vs Placebo),"[3]; baseline to Day 33, Total, ITT",-5.07 mg/mmol
same,Fold Change in Log-Transformed UACR (vs. Placebo),"[3]; baseline to end of dosing, subjects with mean UACR > 3 mg/mmol at baseline",−0.70
same,UACR Geometric Mean (end of dosing relative to baseline),[3]; [8],0.511
same,UACR Geometric Mean Ratio (vs. Placebo),[3]; [8],0.4945
same,UACR Relative Change from Baseline to End of Dosing (vs. Placebo),[3],50.6%
same,UACR Relative Change from Baseline to End of Dosing (vs. Placebo),[3]; listed as MEDI0382,50.55%
same,"Log-transformed UACR, End of Dosing (Day 33), Mean",[3]; [9],1.767
same,"Log-transformed UACR, End of Dosing (Day 33), Median",[3]; [9],1.253
same,insulin sensitivity,[4],improves insulin sensitivity
same,total insulin levels during the clamp,[4]; 4 mU/kg/min insulin infusion,remained lower
same,glucose uptake in brown adipose tissue,[4]; 14C-2-deoxyglucose,elevated
same,Fasting insulin compared with vehicle,[4]; 28 days daily dosing,dramatically lower
same,glucose disposal rate,[4]; clamp,increased
same,glucose infusion rate to maintain euglycemia ˜130 mg/dL,[4]; clamp,significantly higher
same,"ADA titer, one subject",[5]; 6 months after last visit,10
same,"subjects ADA positive post-baseline, number",[5]; As-treated population,2 subjects
same,"subjects ADA positive post-baseline, percentage of dose group",[5]; As-treated population,9.5%
same,"ADA titer, one subject","[5]; Day 12, negative at subsequent visits",≤ 5
same,"ADA titer, one subject",[5]; Day 32,2560
same,"ADA titer, one subject",[5]; Day 60 follow-up visit,160
same,treatment-boosted ADA,[5]; baseline titer boosted 4-fold or higher,No subjects
same,deaths,"[6]; diabetic ketoacidosis and cholecystitis, deemed related",one death
same,Serious adverse events (SAEs) vs placebo,[6]; in vivo,balanced
same,TEAE that led to withdrawal,[6]; in vivo,two subjects
same,incidence of overall TEAEs and product-related TEAEs vs placebo,[6]; in vivo,higher
same,most frequently reported TEAEs (preferred term),[6]; in vivo,"nausea, vomiting, diarrhea, and dyspepsia"
same,"nausea, frequency",[6]; in vivo,33%
same,"treatment-related AEs, frequency",[6]; in vivo,71%
same,"vomiting, frequency",[6]; in vivo,24%
